For one test, the system named is opiate receptor sites. Nature of the test: transmurally stimulated guinea pig ileum preparation (Kosterlitz and Watt), agonist activity compared with Met-enkephaline. The class given is cell-based. As to conditions: isolated guinea pig ileum twitch response, 0.1 Hz stimulation; dose response curve compared with Met-enkephaline. An excerpt:
Thus for example they have affinity for opiate receptor sites and as such may be useful as anagesics, narcotic antagonists or anti-diarrhoeal agents. The test used for the detection of their agonist activity at opiate receptor sites is that of employing the transmurally stimulated guinea pig ileum preparation described in Kosterlitz H. W., and Watt A. J., Brit. J. Pharmacol, and Chemotherapy 33, […] (1968).
In the above mentioned test method of Kosterlitz and Watt male or female guinea pigs (Duncan Hartley strain) are killed by a blow on the head and a portion of the ileum removed and set up in an isolated organ bath of 50 ml volume. A `twitch` response is produced by low frequency (0.1 Hz) stimulation with 0.5 msec rectilinear pulses. The response is depressed by a large number of different pharmacologically active agents (local anaesthetics, smooth muscle depressants, presynaptic α-receptor stimulants, and narcotic agonists).
A test compound is dissolved in distilled water to produce a stock solution of concentration 1 mg/ml. Serial dilutions are carried out using Krebs solution to product concentrations of 10 ug, 1 ug and 0.1 ug/ml. The compound is tested by adding between 0.1-0.3 ml of the solutions to the organ bath. A dose response curve is then drawn and compared with that for Met-enkephaline.

In test [1] the test system is phenylquinone induced writhing. Nature of the test: mouse phenylquinone induced writhing test (Hendershot and Forsaith). The class given is in vivo. The following applies: administered i.v. The procedure:
The compounds were also evaluated in the mouse phenylquinone induced writhing test of Hendershot L. C. and Forsaith J., J. Pharm. Exp. Therap.
In general terms: An intraperitoneal irritant provokes the stretching counted in writhing tests.

Data on two compounds can be found in patent US4199568A, “Tetrapeptide amides” (Reckitt & Colman Products Limited, priority 1977, dated 1980).

The ED50 is the midpoint of the dose-response relation.

As for `C[C@@H](NC(=O)[C@@H](N)Cc1ccc(O)cc1)C(=O)NCC(=O)N(C)[C@@H](Cc1ccccc1)C(=O)NCCC[S+](C)[O-].Cl` (stereo partly drawn) [H-Tyr-D-Ala-Gly-MePhe-NH(CH2)3 SOMe, L-Tyrosyl-D-alanyl-glycyl-N-methyl-L-phenylalanine-3-methylsulphinylpropylamide hydrochloride], the “activity relative to Met-enkephaline” value in the test with opiate receptor sites is on record as “approximately eleven”. The ED50 in test [1] stood at 4.5 µg/kg.
In the same order, the values of `CN[C@@H](Cc1ccc(O)cc1)C(=O)N[C@H](C)C(=O)NCC(=O)N(C)[C@@H](Cc1ccccc1)C(=O)NCCC[S+](C)[O-].Cl` (stereo partly drawn) [Me-Tyr-D-Ala-Gly-MePhe-NH(CH2)3 SOMe, N-Methyl-L-tyrosyl-D-alanyl-glycyl-N-methyl-L-phenylalanine-3-methylsulphinylpropylamide hydrochloride] are “approximately fifteen” and 4 µg/kg.
